The results in this text go back to patent US11091477B2 (Madera Therapeutics, LLC, priority 2016, dated 2021).

As usually defined, the EC50 is the concentration that produces a half-maximal response.

In the first experiment the test system is HCT116 (human colon cancer). Briefly: CCK-8 cell viability assay on HCT116 human colon cancer cells. Type of experiment: cell-based. To be noted: HCT-116, 48 h, HCT116 cells, 48 hours compound incubation, CCK-8, read-out: EC50 (uM, HCT116). Here is the method:
The plate is incubated for 48 hours.
(In general: Tetrazolium dyes change colour on reduction, which living cells bring about.)
Regarding `Cc1cccc(Cn2c(=O)[nH]c3c(c2=O)CN(Cc2ccccc2)CC3)c1` [Example 2, 6-benzyl-3-[(3-methylphenyl)methyl]-1H, 2H, 3H, 4H, 5H, 6H, 7H, 8H-pyrido[4,3-d]pyrimidine-2,4-dione], the EC50 turned out to be 3 µM.

Regarding `Cc1cccc(Cn2c(=O)c3c(n(C)c2=O)CCN(Cc2ccccc2)C3)c1` [Example 3, 6-benxyl-1-methyl-3-[(3-methylphenyl)methyl]-1H, 2H, 3H, 4H, 5H, 6H, 7H, 8H-pyrido[4,3-d]pyrimidine-2,4-dione], the EC50 was 0.18 µM.

In the case of `Cc1cccc(Cn2c(=O)c3c(n(C(C)C)c2=O)CCN(Cc2ccccc2)C3)c1` [Example 4, 6-benzyl-1-isopropyl-3-(3-methylbenzyl)-5,6,7,8-tetrahydropyrido[4,3-d]pyrimidine-2,4(1H,3H)-dione], the EC50 stood at 2 µM.

In the case of `O=c1[nH]c2c(c(=O)n1Cc1ccc(Cl)cc1)CN(Cc1ccccc1)CC2` [Example 5, 6-benzyl-3-(4-chlorobenzyl)-5,6,7,8-tetrahydropyrido[4,3-d]pyrimidine-2,4(1H,3H)-dione], the EC50 was determined as 2.7 µM.

On to `Cn1c2c(c(=O)n(Cc3ccc(Cl)cc3)c1=O)CN(Cc1ccccc1)CC2` [Example 6, 6-benzyl-3-(4-chlorobenzyl)-1-methyl-5,6,7,8-tetrahydropyrido[4,3-d]pyrimidine-2,4(1H,3H)-dione], for which the EC50 amounted to 0.26 µM.

Consider `CC(C)n1c2c(c(=O)n(Cc3ccc(Cl)cc3)c1=O)CN(Cc1ccccc1)CC2` [Example 7, 6-benzyl-3-(4-chlorobenzyl)-1-isopropyl-5,6,7,8-tetrahydropyrido[4,3-d]pyrimidine-2,4(1H,3H)-dione], for which the concentration giving a half-maximal response (EC50) was determined as 6.6 µM.

`O=c1[nH]c2c(c(=O)n1Cc1ccc(C(F)(F)F)cc1)CN(Cc1ccccc1)CC2` [Example 8, 3-(4-(trifluoromethyl)benzyl)-6-benzyl-5,6,7,8-tetrahydropyrido[4,3-d]pyrimidine-2,4(1H,3H)-dione]: the EC50 was 2.6 µM.

Regarding `Cn1c2c(c(=O)n(Cc3ccc(C(F)(F)F)cc3)c1=O)CN(Cc1ccccc1)CC2` [Example 9], the EC50 worked out at 0.31 µM.

For the compound `CC(C)n1c2c(c(=O)n(Cc3ccc(C(F)(F)F)cc3)c1=O)CN(Cc1ccccc1)CC2` [Example 10, 3-(4-(trifluoromethyl)benzyl)-6-benzyl-5,6,7,8-tetrahydro-1-isopropylpyrido[4,3-d]pyrimidine-2,4(1H,3H)-dione], the EC50 is 7.1 µM.

Turning to `CCn1c2c(c(=O)n(Cc3cccc(C(F)(F)F)c3)c1=O)CN(Cc1ccccc1)CC2` [Example 14, 3-(3-(trifluoromethyl)benzyl)-6-benzyl-1-ethyl-5,6,7,8-tetrahydropyrido[4,3-d]pyrimidine-2,4(1H,3H)-dione], the EC50 was found to be 2.5 µM.

In the case of `Cn1c2c(c(=O)n(Cc3cccc(Cl)c3)c1=O)CN(Cc1ccccc1)CC2` [Example 15, 3-(3-chlorobenzyl)-6-benzyl-5,6,7,8-tetrahydro-1-methylpyrido[4,3-d]pyrimidine-2,4(1H,3H)-dione], the EC50 was 3 µM.

For `Cn1c2c(c(=O)n(Cc3cccc(Br)c3)c1=O)CN(Cc1ccccc1)CC2` [Example 17, 6-benzyl-3-(3-bromobenzyl)-1-methyl-5,6,7,8-tetrahydropyrido[4,3-d]pyrimidine-2,4(1H,3H)-dione], the EC50 was 1.1 µM.

Turning to `C#Cc1cccc(CN2CCc3c(c(=O)n(Cc4ccc(C(F)(F)F)cc4)c(=O)n3C)C2)c1` [Example 18, 6-(3-ethynylbenzyl)-1-methyl-3-(4-(trifluoromethyl)benzyl)-5,6,7,8-tetrahydropyrido[4,3-d]pyrimidine-2,4(1H,3H)-dione], the EC50 was 1.4 µM.

With `C#Cc1cccc(CN2CCc3c(c(=O)n(Cc4ccccc4C)c(=O)n3C)C2)c1` [Example 19, 6-(3-ethynylbenzyl)-1-methyl-3-(2-methylbenzyl)-5,6,7,8-tetrahydropyrido[4,3-d]pyrimidine-2,4(1H,3H)-dione], the EC50 is 1.5 µM.

Regarding `C#Cc1cccc(CN2CCc3c(c(=O)n(Cc4cccc(C)c4)c(=O)n3C)C2)c1` [Example 20, 6-(3-ethynylbenzyl)-1-methyl-3-(3-methylbenzyl)-5,6,7,8-tetrahydropyrido[4,3-d]pyrimidine-2,4(1H,3H)-dione], the half-maximal effective concentration (EC50) turned out to be 1 µM.

With `C#Cc1cccc(CN2CCc3c(c(=O)n(Cc4ccc(Cl)cc4)c(=O)n3C)C2)c1` [Example 21, 3-(4-chlorobenzyl)-6-(3-ethynylbenzyl)-1-methyl-5,6,7,8-tetrahydropyrido[4,3-d]pyrimidine-2,4(1H,3H)-dione], the EC50 was determined as 1.4 µM.

As for `Cn1c2c(c(=O)n(Cc3ccc(C(F)(F)F)cc3)c1=O)CN(Cc1cccc(Cl)c1)CC2` [Example 22, 6-(3-chlorobenzyl)-1-methyl-3-(4-(trifluoromethyl)benzyl)-5,6,7,8-tetrahydropyrido[4,3-d]pyrimidine-2,4(1H,3H)-dione], the EC50 came to 0.1 µM.

Consider `Cn1c2c(c(=O)n(Cc3ccc4c(c3)OCO4)c1=O)CN(Cc1ccccc1)CC2` [Example 23, 3-(benzo[d][1,3]dioxol-5-ylmethyl)-6-benzyl-1-methyl-5,6,7,8-tetrahydropyrido[4,3-d]pyrimidine-2,4(1H,3H)-dione], for which the concentration for a half-maximal effect (EC50) was 2.5 µM.

Regarding `Cn1c2c(c(=O)n(Cc3ccc(Br)cc3)c1=O)CN(Cc1cccc(C#N)c1)CC2` [Example 24, 3-((3-(4-bromobenzyl)-1-methyl-2,4-dioxo-1,2,3,4,7,8-hexahydropyrido[4,3-d]pyrimidin-6(5H)-yl)methyl)benzonitrile], the EC50 amounted to 0.022 µM.

For `Cn1c2c(c(=O)n(Cc3ccc(C(F)(F)F)cc3)c1=O)CN(Cc1cccc(C#N)c1)CC2` [Example 26, 3-((1-methyl-2,4-dioxo-3-(4-(trifluoromethyl)benzyl)-1,2,3,4,7,8-hexahydropyrido[4,3-d]pyrimidin-6(5H)-yl)methyl)benzonitrile], the EC50 stood at 0.5 µM.

`CCn1c2c(c(=O)n(Cc3ccc(C(F)(F)F)cc3)c1=O)CN(Cc1cccc(C#N)c1)CC2` [Example 27, 3-((1-ethyl-2,4-dioxo-3-(4-(trifluoromethyl)benzyl)-1,2,3,4,7,8-hexahydropyrido[4,3-d]pyrimidin-6(5H)-yl)methyl)benzonitrile]: the EC50 was found to be 1.9 µM.

Consider `CCn1c2c(c(=O)n(Cc3ccc(Cl)cc3)c1=O)CN(Cc1cccc(C#N)c1)CC2` [Example 28, 3-((3-(4-chlorobenzyl)-1-ethyl-2,4-dioxo-1,2,3,4,7,8-hexahydropyrido[4,3-d]pyrimidin-6(5H)-yl)methyl)benzonitrile], for which the EC50 was determined as 0.21 µM.

Still in this experiment, the particulars now being: HCT-116, 48 h, read-out: EC50 (uM, HCT116).
On to `Cn1c2c(c(=O)n(Cc3cccc(C(F)(F)F)c3)c1=O)CN(Cc1ccccc1)CC2` [Example 13], for which the EC50 was 1.4 µM.

Regarding `Cn1c2c(c(=O)n(Cc3ccc(Cl)cc3)c1=O)CN(Cc1cccc(C#N)c1)CC2` [Example 25, 3-((3-(4-chlorobenzyl)-1-methyl-2,4-dioxo-1,2,3,4,7,8-hexahydropyrido[4,3-d]pyrimidin-6(5H)-yl)methyl)benzonitrile], the EC50 turned out to be 0.74 µM.

With `Cc1ccccc1CN1C(=O)C2=C(CCN(Cc3ccccc3)C2)N2CCN=C12` [TIC10, 11-benzyl-7-[(2-methylphenyl)methyl]-2,5,7,11-tetraazatricyclo[7.4.0.0^2,6]trideca-1(9),5-dien-8-one, reference compound], the EC50 amounted to 2.8 µM.

The next experiment concerns SUM159. Briefly: CCK-8 cell viability assay on SUM159 human breast cancer cells. As to conditions: Homo sapiens, SUM159, 72 h, read-out: EC50 (uM, SUM159).
Method: The plate was incubated for 24 hours in a humidified incubator (37° C., 5% CO2). The compound from the present invention, at the appropriate test concentrations, are added to the culture media of the plate. The plate is incubated for 48 hours. CCK-8 (10 ul, see below) is added to each well. The plate is incubated from 1-4 h under conditions as described above, and the absorbance at 450 nm and 650 nm is measured with a plate reader.
Cell Counting was by CCK-8 using WST-8 (2-(2-methoxy-4-nitrophenyl)-3-(4-nitrophenyl)-5-(2,4-disulfophenyl)-2H-tetrazolium, monosodium salt), which produces a water-soluble formazan dye upon bioreduction in the presence of an electron carrier, 1-Methoxy PMS. CCK-8 solution is added directly to the cells. WST-8 is bioreduced by cellular dehydrogenases to an orange formazan product that is soluble in tissue culture medium. The amount of formazan produced is directly proportional to the number of living cells.
For the compound `Cn1c2c(c(=O)n(Cc3ccc(Cl)cc3)c1=O)CN(Cc1cccc(C#N)c1)CC2` [Example 25, 3-((3-(4-chlorobenzyl)-1-methyl-2,4-dioxo-1,2,3,4,7,8-hexahydropyrido[4,3-d]pyrimidin-6(5H)-yl)methyl)benzonitrile], the 50% effective concentration (EC50) was 0.014 µM.

Consider `Cn1c2c(c(=O)n(Cc3ccc(C(F)(F)F)cc3)c1=O)CN(Cc1cccc(C#N)c1)CC2` [Example 26, 3-((1-methyl-2,4-dioxo-3-(4-(trifluoromethyl)benzyl)-1,2,3,4,7,8-hexahydropyrido[4,3-d]pyrimidin-6(5H)-yl)methyl)benzonitrile], for which the EC50 was found to be 0.017 µM.

Consider `Cc1ccccc1CN1C(=O)C2=C(CCN(Cc3ccccc3)C2)N2CCN=C12` [TIC10, 11-benzyl-7-[(2-methylphenyl)methyl]-2,5,7,11-tetraazatricyclo[7.4.0.0^2,6]trideca-1(9),5-dien-8-one, reference compound], for which the EC50 stood at 1.4 µM.

The experiment is the same for the next values; noted with them: SUM159 cells, 72 hours, versus TIC10.
For `Cn1c2c(c(=O)n(Cc3ccc(Cl)cc3)c1=O)CN(Cc1cccc(C#N)c1)CC2` [Example 25, 3-((3-(4-chlorobenzyl)-1-methyl-2,4-dioxo-1,2,3,4,7,8-hexahydropyrido[4,3-d]pyrimidin-6(5H)-yl)methyl)benzonitrile], the “potency on human cancer lines in comparison to TIC10” value is “significant and unanticipated improvements in potency”.

As for `Cn1c2c(c(=O)n(Cc3ccc(C(F)(F)F)cc3)c1=O)CN(Cc1cccc(C#N)c1)CC2` [Example 26, 3-((1-methyl-2,4-dioxo-3-(4-(trifluoromethyl)benzyl)-1,2,3,4,7,8-hexahydropyrido[4,3-d]pyrimidin-6(5H)-yl)methyl)benzonitrile], the “potency on human cancer lines in comparison to TIC10” value was “significant and unanticipated improvements in potency”.
